Results: the NIST ThermoML archive (doi:10.1016/j.jct.2006.05.006)
± gives the expanded uncertainty stated by the source.

What was measured:
[1] = 101 kPa, Liquid
[2] = refractive index (Na D-line) (dimensionless); details: 293.1 K; 101.33 kPa; Liquid; Standard Abbe refractometry
[3] = xn = mol fraction of the nth substance listed; details: 101 kPa, Liquid

| SMILES | mass density ([1]; 293.15 K) [kg/m3] | mass density ([1]; 303.15 K) [kg/m3] | mass density ([1]; 313.15 K) [kg/m3] | mass density ([1]; 323.15 K) [kg/m3] | mass density ([1]; 333.15 K) [kg/m3] | mass density ([1]; 343.15 K) [kg/m3] | mass density ([1]; 353.15 K) [kg/m3] | refractive index [2] | further results |
| --- | --- | --- | --- | --- | --- | --- | --- | --- | --- |
| CN1CCCC1=O [N-methylpyrrolidone] | 1032.66 ± 0.37 | 1023.42 ± 0.34 | 1014.27 ± 0.31 | 1005.62 ± 0.28 | 996.28 ± 0.28 | 987.39 ± 0.31 | 978.62 ± 0.65 | 1.4677 ± 0.0007 | – |
| CN1CCCC1=O [N-methylpyrrolidone] + CCc1ccccc1 | – | – | – | – | – | – | – | – | mass density ([3]; 293.15 K, x2 = 0): 1032.66 ± 0.37 kg/m3; mass density ([3]; 303.15 K, x2 = 0): 1023.42 ± 0.34 kg/m3; mass density ([3]; 313.15 K, x2 = 0): 1014.27 ± 0.31 kg/m3; mass density ([3]; 323.15 K, x2 = 0): 1005.62 ± 0.28 kg/m3; mass density ([3]; 333.15 K, x2 = 0): 996.28 ± 0.28 kg/m3; mass density ([3]; 343.15 K, x2 = 0): 987.39 ± 0.31 kg/m3; mass density ([3]; 353.15 K, x2 = 0): 978.62 ± 0.33 kg/m3 |
| c1ccccc1 [benzene] | 878.96 ± 0.64 | 868.21 ± 0.67 | 857.4 ± 0.71 | 846.55 ± 0.74 | 835.66 ± 0.78 | 824.71 ± 0.81 | – | 1.5009 ± 0.0007 | – |
| c1ccccc1 [benzene] + CN1CCCC1=O | – | – | – | – | – | – | – | – | mass density ([3]; 293.15 K, x1 = 1): 878.96 ± 0.64 kg/m3; mass density ([3]; 303.15 K, x1 = 1): 868.21 ± 0.67 kg/m3; mass density ([3]; 313.15 K, x1 = 1): 857.4 ± 0.71 kg/m3; mass density ([3]; 323.15 K, x1 = 1): 846.55 ± 0.74 kg/m3; mass density ([3]; 333.15 K, x1 = 1): 835.66 ± 0.78 kg/m3; mass density ([3]; 343.15 K, x1 = 1): 824.71 ± 0.81 kg/m3 |
| CCc1ccccc1 [ethylbenzene] | 867.28 ± 0.81 | 858.36 ± 0.84 | 849.38 ± 0.86 | 840.35 ± 0.89 | 831.25 ± 0.91 | 822.11 ± 0.94 | 812.9 ± 0.97 | 1.4962 ± 0.0008 | – |
| Cc1ccccc1 [toluene] | 866.8 ± 1.9 | 857.53 ± 2 | 848.23 ± 2 | 838.91 ± 2.1 | 829.55 ± 2.1 | 820.17 ± 2.2 | 810.77 ± 2.2 | 1.4965 ± 0.0008 | – |
| Cc1ccccc1 [toluene] + CN1CCCC1=O | – | – | – | – | – | – | – | – | mass density ([3]; 293.15 K, x1 = 1): 866.8 ± 1.9 kg/m3; mass density ([3]; 303.15 K, x1 = 1): 857.53 ± 2 kg/m3; mass density ([3]; 313.15 K, x1 = 1): 848.23 ± 2 kg/m3; mass density ([3]; 323.15 K, x1 = 1): 838.91 ± 2.1 kg/m3; mass density ([3]; 333.15 K, x1 = 1): 829.55 ± 2.1 kg/m3; mass density ([3]; 343.15 K, x1 = 1): 820.17 ± 2.2 kg/m3; mass density ([3]; 353.15 K, x1 = 1): 810.77 ± 2.2 kg/m3 |
